Experimental data taken from PubChem BioAssay AID1963968 (Molecular Pharmacology Branch, DTP, NCI, 2024).

Test system: 945468-187-T-J3-PDC spheroids with HUVEC/MSC, viability
Assay: Anticancer human tumor 945468-187-T-J3-PDC patient-derived rectal carcinoma cell line growth inhibition [PI3K]
Conditions: for IC50: curve of first compound; for viability, T/C: stronger effect = lower value
Summary of the method: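 Tumor cells grown as multi-cell spheroids with HUVEC endothelial cells and MSC fibroblast-like stroma were treated with targeted agents combined with inavolisib, alpelisib, duvelisib or copanlisib. Doses fell in half-log steps from near clinical Cmax, else from 10 microM. Viability was measured.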

[1] = second compound 0.0316 µM, first compound 0.0316 µM
[2] = second compound 0.0316 µM, first compound 0.1 µM
[3] = second compound 0.0316 µM, first compound 0.316 µM
[4] = second compound 0.0316 µM, first compound 1 µM
[5] = second compound 0.0316 µM, first compound 3.16 µM
[6] = second compound 0.0316 µM, first compound 10 µM
[7] = second compound 0.1 µM, first compound 0.0316 µM
[8] = second compound 0.1 µM, first compound 0.1 µM
[9] = second compound 0.1 µM, first compound 0.316 µM
[10] = second compound 0.1 µM, first compound 1 µM
[11] = second compound 0.1 µM, first compound 3.16 µM
[12] = second compound 0.1 µM, first compound 10 µM
[13] = second compound 0.316 µM, first compound 0.0316 µM
[14] = second compound 0.316 µM, first compound 0.1 µM
[15] = second compound 0.316 µM, first compound 0.316 µM
[16] = second compound 0.316 µM, first compound 1 µM
[17] = second compound 0.316 µM, first compound 3.16 µM
[18] = second compound 0.316 µM, first compound 10 µM
[19] = second compound 1 µM, first compound 0.0316 µM
[20] = second compound 1 µM, first compound 0.1 µM
[21] = second compound 1 µM, first compound 0.316 µM
[22] = second compound 1 µM, first compound 1 µM
[23] = second compound 1 µM, first compound 3.16 µM
[24] = second compound 1 µM, first compound 10 µM
[25] = second compound 3.16 µM, first compound 0.0316 µM
[26] = second compound 3.16 µM, first compound 0.1 µM
[27] = second compound 3.16 µM, first compound 0.316 µM
[28] = second compound 3.16 µM, first compound 1 µM
[29] = second compound 3.16 µM, first compound 3.16 µM
[30] = second compound 3.16 µM, first compound 10 µM
[31] = second compound 10 µM, first compound 0.0316 µM
[32] = second compound 10 µM, first compound 0.1 µM
[33] = second compound 10 µM, first compound 0.316 µM
[34] = second compound 10 µM, first compound 1 µM
[35] = second compound 10 µM, first compound 3.16 µM
[36] = second compound 10 µM, first compound 10 µM
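Further: spheroids exposed to agents for 7 days before viability read.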
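Wherever viability, T/C is given: 100% = DMSO vehicle control viability.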

Cn1ncc(Cl)c1-c1cc(C(=O)NC(CN)Cc2cccc(F)c2)sc1Cl (stereo unspecified) + CC(Nc1ncnc2nc[nH]c12)c1cc2cccc(Cl)c2c(=O)n1-c1ccccc1
IC50 (second compound 0.0316 µM): 1720 nM | IC50 (second compound 0.1 µM): 2390 nM | IC50 (second compound 0.316 µM): 1970 nM | IC50 (second compound 1 µM): 1340 nM | IC50 (second compound 3.16 µM): 1730 nM | IC50 (second compound 10 µM): 1140 nM | viability, T/C [1]: 101% | viability, T/C [2]: 96% | viability, T/C [3]: 99.9% | viability, T/C [4]: 59.3% | viability, T/C [5]: 44.9% | viability, T/C [6]: 33.5% | viability, T/C [7]: 94.9% | viability, T/C [8]: 104% | viability, T/C [9]: 88.2% | viability, T/C [10]: 60.5% | viability, T/C [11]: 51.5% | viability, T/C [12]: 38.2% | viability, T/C [13]: 106% | viability, T/C [14]: 97.3% | viability, T/C [15]: 87.3% | viability, T/C [16]: 62.1% | viability, T/C [17]: 41.2% | viability, T/C [18]: 28.6% | viability, T/C [19]: 112% | viability, T/C [20]: 89.5% | viability, T/C [21]: 86.2% | viability, T/C [22]: 48.6% | viability, T/C [23]: 39% | viability, T/C [24]: 28.5% | viability, T/C [25]: 107% | viability, T/C [26]: 97.7% | viability, T/C [27]: 86.5% | viability, T/C [28]: 57.6% | viability, T/C [29]: 40.7% | viability, T/C [30]: 24.6% | viability, T/C [31]: 107% | viability, T/C [32]: 75.9% | viability, T/C [33]: 84.2% | viability, T/C [34]: 44.5% | viability, T/C [35]: 35% | viability, T/C [36]: 20.1%

Cn1nccc1Nc1nccc(-c2ccn(C(CO)c3ccc(Cl)c(F)c3)c(=O)c2)n1 (stereo unspecified) + CC(Nc1ncnc2nc[nH]c12)c1cc2cccc(Cl)c2c(=O)n1-c1ccccc1
IC50 (second compound 0.0316 µM): > 10000 nM | IC50 (second compound 0.1 µM): > 10000 nM | IC50 (second compound 0.316 µM): > 10000 nM | IC50 (second compound 1 µM): > 10000 nM | IC50 (second compound 3.16 µM): > 10000 nM | IC50 (second compound 10 µM): > 10000 nM | viability, T/C [1]: 126% | viability, T/C [2]: 108% | viability, T/C [3]: 117% | viability, T/C [4]: 107% | viability, T/C [5]: 113% | viability, T/C [6]: 132% | viability, T/C [7]: 94.3% | viability, T/C [8]: 101% | viability, T/C [9]: 113% | viability, T/C [10]: 116% | viability, T/C [11]: 117% | viability, T/C [12]: 116% | viability, T/C [13]: 93.3% | viability, T/C [14]: 107% | viability, T/C [15]: 111% | viability, T/C [16]: 114% | viability, T/C [17]: 116% | viability, T/C [18]: 139% | viability, T/C [19]: 113% | viability, T/C [20]: 127% | viability, T/C [21]: 102% | viability, T/C [22]: 121% | viability, T/C [23]: 118% | viability, T/C [24]: 136% | viability, T/C [25]: 108% | viability, T/C [26]: 109% | viability, T/C [27]: 106% | viability, T/C [28]: 120% | viability, T/C [29]: 116% | viability, T/C [30]: 122% | viability, T/C [31]: 104% | viability, T/C [32]: 108% | viability, T/C [33]: 111% | viability, T/C [34]: 123% | viability, T/C [35]: 108% | viability, T/C [36]: 123%

Cn1ncnc1[C@H]1c2n[nH]c(=O)c3cc(F)cc(c23)N[C@@H]1c1ccc(F)cc1 + CC(Nc1ncnc2nc[nH]c12)c1cc2cccc(Cl)c2c(=O)n1-c1ccccc1
IC50 (second compound 0.0316 µM): > 100 nM | IC50 (second compound 0.1 µM): > 100 nM | IC50 (second compound 0.316 µM): > 100 nM | IC50 (second compound 1 µM): > 100 nM | IC50 (second compound 3.16 µM): > 100 nM | IC50 (second compound 10 µM): > 100 nM | viability, T/C (second compound 0.0316 µM, first compound 0.000316 µM): 105% | viability, T/C (second compound 0.0316 µM, first compound 0.001 µM): 87.4% | viability, T/C (second compound 0.0316 µM, first compound 0.00316 µM): 91.7% | viability, T/C (second compound 0.0316 µM, first compound 0.01 µM): 82.9% | viability, T/C [1]: 101% | viability, T/C [2]: 92.4% | viability, T/C (second compound 0.1 µM, first compound 0.000316 µM): 94.2% | viability, T/C (second compound 0.1 µM, first compound 0.001 µM): 87.8% | viability, T/C (second compound 0.1 µM, first compound 0.00316 µM): 97.8% | viability, T/C (second compound 0.1 µM, first compound 0.01 µM): 85.6% | viability, T/C [7]: 89.3% | viability, T/C [8]: 97.8% | viability, T/C (second compound 0.316 µM, first compound 0.000316 µM): 97.5% | viability, T/C (second compound 0.316 µM, first compound 0.001 µM): 95.8% | viability, T/C (second compound 0.316 µM, first compound 0.00316 µM): 90.1% | viability, T/C (second compound 0.316 µM, first compound 0.01 µM): 103% | viability, T/C [13]: 88% | viability, T/C [14]: 101% | viability, T/C (second compound 1 µM, first compound 0.000316 µM): 85.2% | viability, T/C (second compound 1 µM, first compound 0.001 µM): 109% | viability, T/C (second compound 1 µM, first compound 0.00316 µM): 98.5% | viability, T/C (second compound 1 µM, first compound 0.01 µM): 86.8% | viability, T/C [19]: 104% | viability, T/C [20]: 105% | viability, T/C (second compound 3.16 µM, first compound 0.000316 µM): 103% | viability, T/C (second compound 3.16 µM, first compound 0.001 µM): 99.8% | viability, T/C (second compound 3.16 µM, first compound 0.00316 µM): 95.1% | viability, T/C (second compound 3.16 µM, first compound 0.01 µM): 100% | viability, T/C [25]: 102% | viability, T/C [26]: 104% | viability, T/C (second compound 10 µM, first compound 0.000316 µM): 101% | viability, T/C (second compound 10 µM, first compound 0.001 µM): 97.5% | viability, T/C (second compound 10 µM, first compound 0.00316 µM): 106% | viability, T/C (second compound 10 µM, first compound 0.01 µM): 95.7% | viability, T/C [31]: 96.9% | viability, T/C [32]: 102%
